# From patent publication US5683981A, “Cyclic bridged analogs of α-MSH and methods thereof” (Competitive Technologies, Inc., priority 1995, dated 1997)
# Non-standard residues stand in square brackets, D forms with d. Residues, ends and D or L forms follow the SMILES beside them.
# Tests used:
# frog skin = assay: Frog skin assay: melanosome dispersion (skin darkening) in vitro; assay type: cell-based, Rana pipiens; conditions: for Creeping potency (percentage skin darkening at a particular dose increases with time): frog skin bioassay; for Potencies Relative to α-MSH, Frog Skin Assay: tested in the range 10^-12 to 10^-9 M, compared to half-maximal effective dose of α-MSH (10^-10 M)
# Method: (§1) The peptides described above were examined to determine the relative potencies of the peptides in respect to the stimulation of a melanosome dispersion in vitro using the frog (Rana pipiens) and the lizard (Anolis carolinensis) [see Science 213:1025 (1981)]. These assays are recognized by the scientific communitty to be a fairly accurate representation of results that would be expected when the test substances are administered to vertebrates in vivo; if activity is found when the test substances are tested in the frog skin assay and the lizard skin assay, similar activity would be expected if the test substances are administered to vertebrates, i.e, darkening in the two assays would indicate that darkening would also occur in vertebrates. These assays measure the amount of light reflected from the surface of the skins in vitro. In response to melanotropic peptides, melanosomes within integumental melanocytes migrate from a perinuclear position into the dendritic processes of the pigment cells. This centrifugal organellar dispersion results in a change of color (darkening) of the skins which is measured by a Photovolt reflectometer and is expressed as the percent response compared to the initial (time zero) reflectance value. | ^a = all peptide derivatives were tested in the range of 10^-12 t | 10^-9 M concentration; compared to the halfmaximal effective dose of | aMSH in the frog skin assay (10^-10 M), or in the lizard skin assay | (10^-9 M).
# lizard skin = assay: Lizard skin assay: melanosome dispersion (skin darkening) in vitro; assay type: cell-based, Anolis carolinensis; conditions: tested in the range 10^-12 to 10^-9 M; compared to half-maximal effective dose of α-MSH (10^-9 M)
# Method: as §1
# [1] = test system: crude cell membranes of B-16 mouse melanoma cells; assay: Affinity of peptide to homogenized crude cell membranes (HPLC of supernatant and pellet extract); assay type: binding
# Method: 0.3 μmole of peptide SHU-9002 was dissolved in 1 ml solution of homogenized crude cell membranes, obtained from about 0.6 million B-16 mouse melanoma cells, in phosphate buffer. After 5 hrs, the suspension was centrifuged at 10,000×g for 10 min. The pellet was saved and the supernatant subjected to HPLC on a C-18 column.
# The pellet saved above was treated with DMSO-0.1% aq. TFA mixture (1:1), centrifuged as before and the supernatant subjected to HPLC as earlier.
SMILES,"Potencies Relative to α-MSH, Frog Skin Assay (frog skin)","Potencies Relative to α-MSH, Lizard Skin Assay (lizard skin)",other results
CCCC[C@H](NC(=O)[C@H](CO)NC(=O)[C@H](Cc1ccc(O)cc1)NC(=O)[C@H](CO)NC(C)=O)C(=O)N[C@H]1CCC(=O)N[C@@H](CCCNC(=N)N)C(=O)N[C@@H](CCCNC(=N)N)C(=O)NCCCC[C@@H](C(=O)N2CCC[C@H]2C(=O)N[C@H](C(N)=O)C(C)C)NC(=O)CNC(=O)[C@H](Cc2c[nH]c3ccccc23)NC(=O)[C@H](CCCNC(=N)N)NC(=O)[C@@H](Cc2ccccc2)NC(=O)[C@H](Cc2c[nH]cn2)NC1=O [SHU 9002],25,2,"Creeping potency (percentage skin darkening at a particular dose increases with time) (frog skin): exhibited creeping potency; Presence of peptide in supernatant after incubation with cell membranes (HPLC, C-18) ([1]; 0.3 μmole peptide in 1 ml membrane homogenate from about 0.6 million cells, phosphate buffer, 5 hrs, centrifuged 10,000×g 10 min): no evidence for the presence of the peptide SHU-9002 in the supernatant; Affinity to the cell membranes ([1]; conclusion from supernatant and pellet HPLC): marked affinity; Peptide recovered from membrane pellet (HPLC after DMSO-0.1% aq. TFA 1:1 treatment) ([1]; pellet of the 5 hrs incubation): elution pattern corresponding to the SHU-9002 was obtained"
CCCC[C@H](NC(=O)[C@H](CO)NC(=O)[C@H](Cc1ccc(O)cc1)NC(=O)[C@H](CO)NC(C)=O)C(=O)N[C@H]1CCC(=O)N[C@@H](CCCCN)C(=O)N[C@@H](CCCCN)C(=O)NCCCC[C@@H](C(=O)N2CCC[C@H]2C(=O)N[C@H](C(N)=O)C(C)C)NC(=O)CNC(=O)[C@H](Cc2c[nH]c3ccccc23)NC(=O)[C@H](CCCNC(=N)N)NC(=O)[C@@H](Cc2ccccc2)NC(=O)[C@H](Cc2c[nH]cn2)NC1=O [SHU 9009],100,5,
CCCC[C@H](NC(=O)[C@H](CO)NC(=O)[C@H](Cc1ccc(O)cc1)NC(=O)[C@H](CO)NC(C)=O)C(=O)N[C@H]1CCC(=O)N[C@@H](CCCCN)C(=O)N[C@@H](CCCNC(=N)N)C(=O)NCCCC[C@@H](C(=O)N2CCC[C@H]2C(=O)N[C@H](C(N)=O)C(C)C)NC(=O)CNC(=O)[C@H](Cc2c[nH]c3ccccc23)NC(=O)[C@H](CCCNC(=N)N)NC(=O)[C@@H](Cc2ccccc2)NC(=O)[C@H](Cc2c[nH]cn2)NC1=O [SHU 9010],145,,Creeping potency (percentage skin darkening at a particular dose increases with time) (frog skin): exhibited creeping potency
CC(=O)N[C@@H](CO)C(=O)N[C@@H](Cc1ccc(O)cc1)C(=O)N[C@@H](CCCCN)C(=O)N[C@@H](CCCCN)C(=O)N[C@H]1CCC(=O)N[C@@H](CCCNC(=N)N)C(=O)N[C@@H](CCCCN)C(=O)NCCCC[C@@H](C(=O)N2CCC[C@H]2C(=O)N[C@H](C(N)=O)C(C)C)NC(=O)CNC(=O)[C@H](Cc2c[nH]c3ccccc23)NC(=O)[C@H](CCCNC(=N)N)NC(=O)[C@@H](Cc2ccccc2)NC(=O)[C@H](Cc2c[nH]cn2)NC1=O [SHU 9013],1,4,
CCCC[C@H](NC(=O)[C@H](CO)NC(=O)[C@H](Cc1ccc(O)cc1)NC(=O)[C@H](CO)NC(C)=O)C(=O)N[C@H]1CCC(=O)N[C@@H](CCCNC(=N)N)C(=O)N[C@@H](CCCCN)C(=O)NCCCC[C@@H](C(=O)N2CCC[C@H]2C(=O)N[C@H](C(N)=O)C(C)C)NC(=O)CNC(=O)[C@H](Cc2c[nH]c3ccccc23)NC(=O)[C@H](CCCNC(=N)N)NC(=O)[C@@H](Cc2ccccc2)NC(=O)[C@H](Cc2c[nH]cn2)NC1=O [SHU 9014],20,4,
CCCC[C@H](NC(C)=O)C(=O)N[C@H]1CC(=O)N[C@@H](CCCCN)C(=O)N[C@@H](CCCNC(=N)N)C(=O)NCCCC[C@@H](C(N)=O)NC(=O)[C@H](Cc2c[nH]c3ccccc23)NC(=O)[C@H](CCCNC(=N)N)NC(=O)[C@@H](Cc2ccccc2)NC(=O)[C@H](Cc2c[nH]cn2)NC1=O [SHU 9018],0.05,10,
CCCC[C@H](NC(C)=O)C(=O)N[C@H]1CC(=O)N[C@@H](CCCCN)C(=O)N[C@@H](CCCCN)C(=O)NCCCC[C@@H](C(N)=O)NC(=O)[C@H](Cc2c[nH]c3ccccc23)NC(=O)[C@H](CCCNC(=N)N)NC(=O)[C@@H](Cc2ccccc2)NC(=O)[C@H](Cc2c[nH]cn2)NC1=O [SHU 9019],,12.5,
CCCC[C@H](NC(C)=O)C(=O)N[C@H]1CC(=O)N[C@@H](CCCNC(=N)N)C(=O)N[C@@H](CCCNC(=N)N)C(=O)NCCCC[C@@H](C(N)=O)NC(=O)[C@H](Cc2c[nH]c3ccccc23)NC(=O)[C@H](CCCNC(=N)N)NC(=O)[C@@H](Cc2ccccc2)NC(=O)[C@H](Cc2c[nH]cn2)NC1=O [SHU 9020],0.14,6.7,
CCCC[C@H](NC(C)=O)C(=O)N[C@H]1CC(=O)N[C@@H](CCCNC(=N)N)C(=O)N[C@@H](CCCCN)C(=O)NCCCC[C@@H](C(N)=O)NC(=O)[C@H](Cc2c[nH]c3ccccc23)NC(=O)[C@H](CCCNC(=N)N)NC(=O)[C@@H](Cc2ccccc2)NC(=O)[C@H](Cc2c[nH]cn2)NC1=O [SHU 9021],0.25,13.4,
CCCC[C@@H]1NC(=O)CC[C@H](NC(=O)[C@H](CCCC)NC(=O)[C@H](CO)NC(=O)[C@H](Cc2ccc(O)cc2)NC(=O)[C@H](CO)NC(C)=O)C(=O)N[C@@H](Cc2c[nH]cn2)C(=O)N[C@H](Cc2ccccc2)C(=O)N[C@@H](CCCNC(=N)N)C(=O)N[C@@H](Cc2c[nH]c3ccccc23)C(=O)NCC(=O)N[C@H](C(=O)N2CCC[C@H]2C(=O)N[C@H](C(N)=O)C(C)C)CCCCNC(=O)[C@H](CCCC)NC1=O [SHU 9026],7,,
"CC(=O)N[C@@H](CO)C(=O)N[C@@H](Cc1ccc(O)cc1)C(=O)N[C@@H](CCCCN)C(=O)N[C@@H](CCCCN)C(=O)N[C@@H](CCC(=O)O)C(=O)N[C@@H](Cc1c[nH]cn1)C(=O)N[C@H](Cc1ccccc1)C(=O)N[C@@H](CCCNC(=N)N)C(=O)N[C@@H](Cc1c[nH]c2ccccc12)C(=O)NCC(=O)N[C@@H](CCCCN)C(=O)N1CCC[C@H]1C(=O)N[C@H](C(N)=O)C(C)C [SHU 9027, Ac[Lys^3,4, DPhe^7]-α-MSH1-13NH2] (Ac-SYKKEH[dF]RWGKPV-NH2)",0.4,,
CCCC[C@H](NC(=O)[C@H](CO)NC(=O)[C@H](Cc1ccc(O)cc1)NC(=O)[C@H](CO)NC(C)=O)C(=O)N[C@H]1CCC(=O)NCCCC[C@@H](C(=O)N2CCC[C@H]2C(=O)N[C@H](C(N)=O)C(C)C)NC(=O)CNC(=O)[C@H](Cc2c[nH]c3ccccc23)NC(=O)[C@H](CCCNC(=N)N)NC(=O)[C@@H](Cc2ccccc2)NC(=O)[C@H](Cc2c[nH]cn2)NC1=O [SHU-9205],1.3,,
CCCC[C@H](NC(=O)[C@H](CO)NC(=O)[C@H](Cc1ccc(O)cc1)NC(=O)[C@H](CO)NC(C)=O)C(=O)N[C@H]1CCC(=O)N[C@@H](CCC(=O)O)C(=O)N[C@@H](CCC(=O)O)C(=O)NCCCC[C@@H](C(=O)N2CCC[C@H]2C(=O)N[C@H](C(N)=O)C(C)C)NC(=O)CNC(=O)[C@H](Cc2c[nH]c3ccccc23)NC(=O)[C@H](CCCNC(=N)N)NC(=O)[C@@H](Cc2ccccc2)NC(=O)[C@H](Cc2c[nH]cn2)NC1=O [SHU-9207],1.3,,
CCCC[C@H](NC(=O)[C@H](CO)NC(=O)[C@H](Cc1ccc(O)cc1)NC(=O)[C@H](CO)NC(C)=O)C(=O)N[C@H]1CCC(=O)N[C@@H](CO)C(=O)N[C@@H](CO)C(=O)NCCCC[C@@H](C(=O)N2CCC[C@H]2C(=O)N[C@H](C(N)=O)C(C)C)NC(=O)CNC(=O)[C@H](Cc2c[nH]c3ccccc23)NC(=O)[C@H](CCCNC(=N)N)NC(=O)[C@@H](Cc2ccccc2)NC(=O)[C@H](Cc2c[nH]cn2)NC1=O [SHU-9209],5,,
CCCC[C@H](NC(=O)[C@H](CO)NC(=O)[C@H](Cc1ccc(O)cc1)NC(=O)[C@H](CO)NC(C)=O)C(=O)N[C@H]1CCC(=O)N[C@H](CCCCN)C(=O)N[C@H](CCCCN)C(=O)NCCCC[C@@H](C(=O)N2CCC[C@H]2C(=O)N[C@H](C(N)=O)C(C)C)NC(=O)CNC(=O)[C@H](Cc2c[nH]c3ccccc23)NC(=O)[C@H](CCCNC(=N)N)NC(=O)[C@@H](Cc2ccccc2)NC(=O)[C@H](Cc2c[nH]cn2)NC1=O [SHU-9210],3.5,,
